The source of these data is patent publication US11642332B2, “(2R,4R)-5-(5′-chloro-2′-fluorobiphenyl-4-yl)-2-hydroxy-4-[(5-methyloxazole-2-carbonyl)amino]pentanoic acid” (THERAVANCE BIOPHARMA R&D IP, LLC, priority 2015, dated 2023).

The target in one series is T1, NEP (Rattus norvegicus, UniProt P07861).
T1 construct: Pre-cannulated male Sprague-Dawley rats (3 per compound evaluated) between 8 and 10 weeks of age were obtained from Harlan Laboratories; from tissue; host or cells: whole animal: conscious male Sprague-Dawley rats (Harlan Laboratories)
T1 sequence (P07861 1-750): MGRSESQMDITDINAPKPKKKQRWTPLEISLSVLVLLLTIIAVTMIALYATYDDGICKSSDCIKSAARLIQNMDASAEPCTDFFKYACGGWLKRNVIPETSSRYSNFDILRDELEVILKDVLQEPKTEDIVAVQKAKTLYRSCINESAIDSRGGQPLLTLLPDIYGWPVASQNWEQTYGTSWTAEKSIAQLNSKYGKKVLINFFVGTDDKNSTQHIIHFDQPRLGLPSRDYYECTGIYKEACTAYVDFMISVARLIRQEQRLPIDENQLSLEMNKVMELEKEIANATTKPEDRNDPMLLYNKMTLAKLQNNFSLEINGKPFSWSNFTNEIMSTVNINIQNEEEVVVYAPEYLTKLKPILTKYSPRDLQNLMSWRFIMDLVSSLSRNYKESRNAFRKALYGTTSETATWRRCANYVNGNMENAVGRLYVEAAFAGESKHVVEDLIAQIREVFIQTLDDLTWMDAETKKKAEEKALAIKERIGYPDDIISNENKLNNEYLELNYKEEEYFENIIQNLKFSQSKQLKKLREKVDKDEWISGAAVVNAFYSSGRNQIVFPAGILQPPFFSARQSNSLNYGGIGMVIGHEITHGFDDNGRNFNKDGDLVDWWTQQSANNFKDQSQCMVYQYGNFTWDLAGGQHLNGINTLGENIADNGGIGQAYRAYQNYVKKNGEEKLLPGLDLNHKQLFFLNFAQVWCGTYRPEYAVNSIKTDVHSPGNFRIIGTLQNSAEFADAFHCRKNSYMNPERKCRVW
Put plainly: PK-PD assay for NEP activity in conscious normotensive Sprague-Dawley rats (plasma cGMP after ANP bolus). The note with it: 3 mg/kg oral. The format is in vivo, male Sprague-Dawley rats. On the procedure: Appropriate masses of each test compound were added into a volume of vehicle (e.g. 5% sodium bicarbonate, 5% dextrose in H2O) such that the final concentration of each compound was appropriate to be dosed at 2 mL/kg. Note that a homogenous suspension was deemed to be acceptable for oral dosing.
Pre-cannulated male Sprague-Dawley rats (3 per compound evaluated) between 8 and 10 weeks of age were obtained from Harlan Laboratories (Indianapolis, Ind.). Rats received a single oral gavage of the dosing solution. The final dose was typically in the range of 3-30 mg/kg. Serial blood samples were harvested via the cannula implanted in the jugular vein at 3 minutes, 15 minutes, 35 minutes, 45 minutes, 1 hour, 2 hours, 4 hours, 6 hours, and 24 hours post-dose. Samples were collected into microtainer tubes containing EDTA as the anticoagulant and were processed to plasma by refrigerated centrifugation. Fifteen minutes prior to the 45 minute, 2 hour, 4 hour, 6 hour, and 24 hour samples, an IV bolus (30 μg/kg) of Atrial Natriuretic Peptide (ANP) was administered. […] Since binding of ANP to its receptor leads to activation of guanylyl cyclase and subsequent production of cyclic guanosine monophosphate (cGMP), the observation of elevated levels of cGMP (>20 nM) in plasma 15 minutes after the IV administration of the ANP bolus was interpreted as evidence of ongoing neprilysin inhibition. Elevated levels plasma cGMP levels 24 hours after dosing is an indicator of the duration pharmacologic effect, analogous to plasma clearance values as indicators of pharmacokinetic persistence.
Plasma samples were extracted with 3 volumes of MeCN containing a suitable internal standard. Extracts were reconstituted into 3 volumes of water containing 1% formic acid. Plasma cGMP and test compound concentrations were quantified in plasma samples by HPLC-coupled mass spectrometric detection.

A short description of series [1]: IV/PO pharmacokinetic study of Compound 1 in monkeys. The format is in vivo. The note with it: male, cynomolgus monkey, plasma, 1 mg/kg; for AUC(0-t): read-out: AUClast Mean. On the procedure: A monkey PK study was performed with an appropriate mass of compound 1 in volume of vehicle (e.g., 5% sodium bicarbonate, 5% dextrose in H2O, pH 7.4, for oral and PEG200:EtOH:Water (40:10:50), pH 7.0, filtered through a […] PDVF syringe for IV) such that the final concentration was dosed at 0.5 mL/kg (IV) or 2.0 mL/kg (PO).
Male cynomologus monkeys (3 per route) housed at Xenometrics (Stilwell, Kans.) received an IV or PO dose of compound 1 at 1 mg/kg. Animals administered IV doses had access to food ad libitum and those administered PO doses were fasted overnight and received food approximately 4 hours after dose administration. Blood samples were collected from each animal at each time point (pre-dose, 0.083 hour, 0.25 hour, 0.5 hour, 1 hour, 2 hours, 4 hours, 6 hours, 8 hours, 12 hours, and 24 hours) via the cephalic, femoral, or sphenous vein through 48 hours. All samples were collected into K2EDTA tubes and placed on ice. Samples were processed to plasma by centrifugation (3200 rpm, 10 minutes, 5° C.), and acidified with a final concentration of 2% acetic acid. Aliquots of plasma were transferred to a 96-well plate tubes and stored frozen (−70° C.) prior to bioanalysis. Plasma concentrations of compound 1 were determined by LC/MS/MS. Plasma study samples were vortexed and placed in a 96-well plate. The samples were extracted with 200 μL of 0.2% formic acid in acetonitrile with an internal standard. The extract was centrifuged for 10 minutes at 3700 RPM and supernatant was mixed with 0.2% formic acid in water. Samples (15 μL) were injected on a Thermo (C18 50×2.1 mm) column with a flow rate of 0.3 mL/min. […] Pharmacokinetic parameters of compound 1 were determined by non-compartmental analysis (Model 201 and Model 200 for IV and PO administration, respectively) using Phoenix WinNonlin Version 6.3 (Certara, Sunnyvale, Calif.) and using individual plasma concentration time profiles from 3 animals.
Plasma clearance was determined from the intravenous arm of the study, and represents the rate at which plasma is cleared of drug. […]

Read-outs that look alike come from different tables or passages of the source.

As a reminder, the bioavailability is dose-corrected exposure relative to a reference, in per cent. A high value points to much systemic uptake. On to `Cc1cnc(C(=O)N[C@H](Cc2ccc(-c3cc(Cl)ccc3F)cc2)C[C@@H](O)C(=O)O)o1` [Compound 1, (2R,4R)-5-(5′-Chloro-2′-fluorobiphenyl-4-yl)-2-hydroxy-4-[(5-methyloxazole-2-carbonyl)amino]pentanoic Acid], for which the “cGMP Concentration 24 hours After Dosing Mean” value at NEP (rat plasma, 15 min after IV ANP bolus (30 μg/kg), average of three determinations) is 112 nM. On NEP (rat), the “potentiation of cGMP 24 hr after dosing compared to Compounds C2, C3 and C4” value is given as “more than 2 fold”. Further, the AUC(0-t) in series [1] (IV) came to 2780 ng·h/mL; in series [1] (PO), 1660 ng·h/mL. In series [1] (oral, PO vs IV), this compound registered a bioavailability of around 60%.
